Where two headings read alike, the source gives them in different places.
Test: Phase I trial of oral PCLX-001: plasma pharmacokinetics, noncompartmental analysis (Phoenix WinNonlin 8.3)
Type: in vivo, human
Settings: for AUC(0-t): read-out: AUClast; for Tmax: read-out: Tmax
Description: The clinical trial is entitled “Phase I Trial of PCLX-001 in B-cell Non-Hodgkin Lymphoma and Advanced Solid Malignancies” and registered at clinicaltrials.gov as NCT04836195. It is a phase I dose-escalation study of oral PCLX-001, conducted in a multicenter, non-randomized, open-label, non-controlled design. The study is comprised of two parts: Part A (single-agent dose escalation) and Part B (single-agent expansion cohorts).
Patients are to receive daily oral PCLX-001 on 28-day cycles, beginning with a starting dose of 20 mg.
[…] After dosing, the blood samples (volumes 3 mL) were serially collected into heparinized tubes from a right forearm butterfly cannula. All blood fluid specimens were frozen and later assayed using a validated UHPLC-MS detection method.
Noncompartmental pharmacokinetic analysis was performed using Phoenix WinNonlin 8.3 using trapezoidal rule and linear up log down methodology. WinNonlin was allowed to pick optimal terminal phases.
Nonparametric superposition was performed using Phoenix WinNonlin Nonparametric Superposition to predict steady state data based upon Day 1 data for each patient. It utilized the 8- and 24-hour time points for estimation of terminal phase for the purposes of this exercise. We simulated 20 mg daily oral dosing and simulations were conducted out to steady state. Results are show in FIGS. 5, 6, and 7.
In the non-compartmental analysis, Phoenix WinNonlin 8.3 trapezoidal rule was used, with linear up log down method. This allowed WinNonlin to pick optimal terminal phase (WinNonlin will accept Rsq adjusted to >0.7). Additional analysis to assess adequate fie included visual inspection of data, and AUCextrap should be <15%.
Phoenix WinNonlin 8.3 trapezoidal rule. Used linear up log down method. Allowed WinNonlin to pick optimal terminal phase (WinNonlin will accept Rsq adjusted >0.7).
Other analysis to assess adequate fit. Visual inspection of data. AUCextrap should be <15%.

[1] = Table 1A, Patient 115-002-001 (Patient 1), Day 1, 20 mg oral daily
[2] = human, plasma, oral, 20 mg, Table 4, Mean, not on Pantoprazole, 20 mg, N 3, Day 1
[3] = human, plasma, oral, 20 mg, Table 4, Mean, not on Pantoprazole, 20 mg, N 3, Day 15
[4] = human, plasma, oral, 40 mg, Table 4, not on Pantoprazole, 40 mg, N 1, Day 1
[5] = human, plasma, oral, 40 mg, Table 4, not on Pantoprazole, 40 mg, N 1, Day 15
[6] = human, plasma, oral, 40 mg, Table 5, on Pantoprazole, 40 mg, N 1, Day 1
[7] = human, plasma, oral, 40 mg, Table 5, on Pantoprazole, 40 mg, N 1, Day 15
[8] = human, plasma, oral, 70 mg, Table 4, not on Pantoprazole, 70 mg, N 1, Day 1

With `Cc1c(NS(=O)(=O)c2c(Cl)cc(-c3ccnc(N4CCNCC4)c3)cc2Cl)c(CC(C)C)nn1C` [PCLX-001, 2,6-dichloro-N-(3-isobutyl-1,5-dimethyl-1H-pyrazol-4-yl)-4-(2-(piperazin-1-yl)pyridin-4-yl)benzene sulfonamide] the “systemic accumulation of drug” value (Patient 1, by day 15, 20 mg oral daily) was “without systemic accumulation of drug”, the drug accumulation (Patient 2, 20 mg oral daily) was “No significant drug accumulation” and the AUCextrep [1] was 15.9%. It also gave a half-life [1] of 8.5 h, an AUCextrep (Table 1A, Patient 115-002-001 (Patient 1), Day 15, 20 mg oral daily) of 21.9% and an AUCextrep (Table 1A, Patient 115-002-002 (Patient 2), Day 15, 20 mg oral daily) of 20.4%. It also gave an AUCextrep (Table 1A, Patient 115-002-004 (Patient 3), Day 1, 20 mg oral daily) of 5.41%, an AUCextrep (Table 1A, Patient 115-002-004 (Patient 3), Day 15, 20 mg oral daily) of 11.3% and an AUCextrap (Table 6, Patient 115-002-001, Day 1, 20 mg QD oral, Pantoprazole No) of 15.3%. It also gave an AUCextrap (Table 6, Patient 115-002-001, Day 15, 20 mg QD oral, Pantoprazole No) of 23.7%, an AUCextrap (Table 6, Patient 115-002-002, Day 15, 20 mg QD oral, Pantoprazole No) of 17.5% and an AUCextrap (Table 6, Patient 115-002-004, Day 1, 20 mg QD oral, Pantoprazole No) of 5.1%. The AUCextrap (Table 6, Patient 115-002-004, Day 15, 20 mg QD oral, Pantoprazole No) was 10.0%, the AUCextrap (Table 7, Patient 115-002-005, Day 1, 40 mg QD oral, Pantoprazole Yes) was 9.5% and the AUCextrap (Table 7, Patient 115-002-005, Day 15, 40 mg QD oral, Pantoprazole Yes) was 5.3%. It also gave an AUCextrap (Table 7, Patient 115-009-001, Day 1, 40 mg QD oral, Pantoprazole No) of 20.1%, an AUCextrap (Table 7, Patient 115-009-001, Day 15, 40 mg QD oral, Pantoprazole No) of 24.9% and an AUCextrap (Table 8, Patient 115-024-001, Day 1, 70 mg QD oral, Pantoprazole No) of 16.8%. The AUCextrap (Table 9, Patient 115-002-009, Day 1, 100 mg QD oral, Pantoprazole No) was 4.4%, the AUCextrap (Table 9, Patient 115-002-010, Day 1, 100 mg QD oral, Pantoprazole No) was 10.9% and the AUCextrap (Table 9, Patient 115-002-011, Day 1, 100 mg QD oral, Pantoprazole No) was 18.4%. It also gave an AUCextrap (Table 9, Patient 115-002-012, Day 15, 100 mg QD oral, Pantoprazole No) of 12.2%, an AUCextrap (Table 10, Patient 115-002-006, Day 1, Dose 140 mg QD oral, Concomitant Pantoprazole No) of 5.48% and an AUCextrap (Table 10, Patient 115-002-006, Day 15, Dose 140 mg QD oral, Concomitant Pantoprazole No) of 22.7%. The AUCextrap (Table 10, Patient 115-024-005, Day 1, Dose 140 mg QD oral, Concomitant Pantoprazole Yes) was 12.1%, the AUCextrap (Table 10, Patient 115-024-005, Day 15, Dose 140 mg QD oral, Concomitant Pantoprazole Yes) was 37.9% and the AUCextrap (Table 10, Patient 115-024-013, Day 1, Dose 140 mg QD oral, Concomitant Pantoprazole Yes) was 12.5%. For the same compound, the AUCextrap (Table 10, Patient 115-024-013, Day 15, Dose 140 mg QD oral, Concomitant Pantoprazole Yes) was 39.9%, the “dose proportionality of systemic exposure” value (dose range of 20 to 140 mg) was “dose proportional” and the Cmax (human, plasma, oral, 20 mg, Table 3, human (patient 1), 20 mg/75 kg = 0.27 mg/kg) was 479 ng/mL. The half-life (human, plasma, oral, 20 mg, Table 3, human (patient 1), 20 mg/75 kg = 0.27 mg/kg, read-out: Terminal elimination half-life (converted)) was 16 h, the Cmax (human, plasma, oral, 20 mg, Table 4, Mean (CV), not on Pantoprazole, 20 mg, N 3, Day 1) was 276 ng/mL and the half-life (human, plasma, oral, 20 mg, Table 4, Mean (CV), not on Pantoprazole, 20 mg, N 3, Day 1, read-out: t½ (converted)) was 6.93 h. It also gave a Cmax (human, plasma, oral, 20 mg, Table 4, Mean (CV), not on Pantoprazole, 20 mg, N 3, Day 15) of 359 ng/mL, a half-life (human, plasma, oral, 20 mg, Table 4, Mean (CV), not on Pantoprazole, 20 mg, N 3, Day 15, read-out: t½ (converted)) of 8.93 h and an AUC(0-inf) [2] of 1960 ng·h/mL. The AUC(0-t) [2] was 1600 ng·h/mL, the AUC(0-inf) [3] was 2720 ng·h/mL and the AUC(0-t) [3] was 2220 ng·h/mL. The Tmax (human, plasma, oral, 20 mg, Table 4, median (min, max), not on Pantoprazole, 20 mg, N 3, Day 1) was 2 h, the Tmax (human, plasma, oral, 20 mg, Table 4, median (min, max), not on Pantoprazole, 20 mg, N 3, Day 15) was 1 h and the AUC(0-inf) [4] was 12600 ng·h/mL. It also gave a Cmax [4] of 1670 ng/mL, an AUC(0-t) [4] of 10100 ng·h/mL and a Tmax [4] of 1 h. The half-life (human, plasma, oral, 40 mg, Table 4, not on Pantoprazole, 40 mg, N 1, Day 1, read-out: t½ (converted)) was 10.8 h, the AUC(0-inf) [5] was 18300 ng·h/mL and the Cmax [5] was 1480 ng/mL. The AUC(0-t) [5] was 13700 ng·h/mL, the Tmax [5] was 2 h and the half-life (human, plasma, oral, 40 mg, Table 4, not on Pantoprazole, 40 mg, N 1, Day 15, read-out: t½ (converted)) was 11.9 h. The AUC(0-inf) [6] was 4900 ng·h/mL, the Cmax [6] was 868 ng/mL and the AUC(0-t) [6] was 4430 ng·h/mL. It also gave a Tmax [6] of 0.5 h, a half-life (human, plasma, oral, 40 mg, Table 5, on Pantoprazole, 40 mg, N 1, Day 1, read-out: t½ (converted)) of 7.5 h and an AUC(0-inf) [7] of 7060 ng·h/mL. The Cmax [7] was 802 ng/mL, the AUC(0-t) [7] was 6680 ng·h/mL and the Tmax [7] was 2 h. For the same compound, the half-life (human, plasma, oral, 40 mg, Table 5, on Pantoprazole, 40 mg, N 1, Day 15, read-out: t½ (converted)) was 5.54 h, the AUC(0-inf) [8] was 11300 ng·h/mL and the Cmax [8] was 1430 ng/mL. The AUC(0-t) [8] was 9400 ng·h/mL, the Tmax [8] was 1 h and the half-life (human, plasma, oral, 70 mg, Table 4, not on Pantoprazole, 70 mg, N 1, Day 1, read-out: t½ (converted)) was 9.44 h.

Reference: patent US20250161299A1, “ORAL PCLX-001 IN THE TREATMENT OF HUMAN CANCER” (PACYLEX PHARMACEUTICALS INC., priority 2022, published 2025)
